Source: publication PMC10504751, “Chalcone/1,3,4-Oxadiazole/Benzimidazole hybrids as novel anti-proliferative agents inducing apoptosis and inhibiting EGFR & BRAFV^600E” (BMC Chemistry, 2023)

Columns and labels:
Assay in all cases: NCI one-dose SRB anti-proliferative screen
Assay type in all cases: cell-based
KM12 = details: Homo sapiens; KM12 (Colon Cancer), NCI one dose 10 µM; read-out: Cell growth inhibition %
Procedure, shortened: (§1)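 Read-out: sulforhodamine B protein stain measured colorimetrically after exposure of the cells to test compound at 10 µM. This line formed one member of a 60-line panel spanning lung, leukaemia, melanoma, colon, renal, CNS, prostate, breast and ovarian origins.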

RPMI-8226 = details: Homo sapiens; RPMI-8226 (Leukemia), NCI one dose 10 µM; read-out: Cell growth inhibition %
Procedure, shortened: as §1

U251 = details: Homo sapiens, U-251; U251 (CNS Cancer), NCI one dose 10 µM; read-out: Cell growth inhibition %
Procedure, shortened: as §1

DU-145 = details: Homo sapiens; DU-145 (Prostate Cancer), NCI one dose 10 µM; read-out: Cell growth inhibition %
Procedure, shortened: as §1

OVCAR-5 = details: Homo sapiens; OVCAR-5 (Ovarian Cancer), NCI one dose 10 µM; read-out: Cell growth inhibition %
Procedure, shortened: as §1

HS 578T = details: Homo sapiens; HS 578T (Breast Cancer), NCI one dose 10 µM; read-out: Cell growth inhibition %
Procedure, shortened: as §1

LOX IMVI = details: Homo sapiens, LOX IMIV (Melanoma), NCI one dose 10 µM, read-out: Cell growth inhibition %
Procedure, shortened: as §1

OVCAR-8 = details: Homo sapiens; OVCAR-8 (Ovarian Cancer), NCI one dose 10 µM; read-out: Cell growth inhibition %
Procedure, shortened: as §1

OVCAR-4 = details: Homo sapiens; OVCAR-4 (Ovarian Cancer), NCI one dose 10 µM; read-out: Cell growth inhibition %
Procedure, shortened: as §1

SK-MEL-2 = details: Homo sapiens; SK-MEL-2 (Melanoma), NCI one dose 10 µM; read-out: Cell growth inhibition %
Procedure, shortened: as §1

SN12C = details: Homo sapiens, SN 12C (Renal Cancer), NCI one dose 10 µM, read-out: Cell growth inhibition %
Procedure, shortened: as §1

IGROV1 = details: Homo sapiens, IGROV-1; IGROV1 (Ovarian Cancer), NCI one dose 10 µM; read-out: Cell growth inhibition %
Procedure, shortened: as §1

UACC-257 = details: Homo sapiens; UACC-257 (Melanoma), NCI one dose 10 µM; read-out: Cell growth inhibition %
Procedure, shortened: as §1

HT29 = details: Homo sapiens, HT-29; HT29 (Colon Cancer), NCI one dose 10 µM; read-out: Cell growth inhibition %
Procedure, shortened: as §1

CCRF-CEM = details: Homo sapiens; CCRF-CEM (Leukemia), NCI one dose 10 µM; read-out: Cell growth inhibition %
Procedure, shortened: as §1

SK-OV-3 = details: Homo sapiens; SK-OV-3 (Ovarian Cancer), NCI one dose 10 µM; read-out: Cell growth inhibition %
Procedure, shortened: as §1

SR = details: Homo sapiens; SR (Leukemia), NCI one dose 10 µM; read-out: Cell growth inhibition %
Procedure, shortened: as §1

SW-620 = details: Homo sapiens; SW-620 (Colon Cancer), NCI one dose 10 µM; read-out: Cell growth inhibition %
Procedure, shortened: as §1

HCT-15 = details: Homo sapiens; HCT-15 (Colon Cancer), NCI one dose 10 µM; read-out: Cell growth inhibition %
Procedure, shortened: as §1

NCI-H460 = details: Homo sapiens; NCI-H460 (Non-Small Cell Lung Cancer), NCI one dose 10 µM; read-out: Cell growth inhibition %
Procedure, shortened: as §1

CAKI-1 = details: Homo sapiens; CAKI-1 (Renal Cancer), NCI one dose 10 µM; read-out: Cell growth inhibition %
Procedure, shortened: as §1

SF-295 = details: Homo sapiens; SF-295 (CNS Cancer), NCI one dose 10 µM; read-out: Cell growth inhibition %
Procedure, shortened: as §1

PC-3 = details: Homo sapiens; PC-3 (Prostate Cancer), NCI one dose 10 µM; read-out: Cell growth inhibition %
Procedure, shortened: as §1

NCI-H226 = details: Homo sapiens; NCI-H226 (Non-Small Cell Lung Cancer), NCI one dose 10 µM; read-out: Cell growth inhibition %
Procedure, shortened: as §1

BT-549 = details: Homo sapiens; BT-549 (Breast Cancer), NCI one dose 10 µM; read-out: Cell growth inhibition %
Procedure, shortened: as §1

OVCAR-3 = details: Homo sapiens; OVCAR-3 (Ovarian Cancer), NCI one dose 10 µM; read-out: Cell growth inhibition %
Procedure, shortened: as §1

UO-31 = details: Homo sapiens; UO-31 (Renal Cancer), NCI one dose 10 µM; read-out: Cell growth inhibition %
Procedure, shortened: as §1

786-0 = details: Homo sapiens; 786-0 (Renal Cancer), NCI one dose 10 µM; read-out: Cell growth inhibition %
Procedure, shortened: as §1

ACHN = details: Homo sapiens; ACHN (Renal Cancer), NCI one dose 10 µM; read-out: Cell growth inhibition %
Procedure, shortened: as §1

MCF7 = details: Homo sapiens; MCF7 (Breast Cancer), NCI one dose 10 µM; read-out: Cell growth inhibition %
Procedure, shortened: as §1

MDA-MB-468 = details: Homo sapiens; MDA-MB-468 (Breast Cancer), NCI one dose 10 µM; read-out: Cell growth inhibition %
Procedure, shortened: as §1

NCI-H23 = details: Homo sapiens; NCI-H23 (Non-Small Cell Lung Cancer), NCI one dose 10 µM; read-out: Cell growth inhibition %
Procedure, shortened: as §1

SMILES: COc1cc(-c2nc3cc(-c4nnc(SCC(=O)Nc5ccc(C(=O)/C=C/c6ccc(Cl)cc6)cc5)o4)ccc3[nH]2)cc(OC)c1OC [Compound 7v, 2-{5-[2-(3,4,5-Trimethoxyphenyl)-1 H-benzo[d]imidazol-5-yl]-1,3,4-oxadiazol-2-ylthio}-N-{4-[(E)-3-(4-chlorophenyl)acryloyl]phenyl}acetamide]
- inhibition at 10 µM (KM12): 9.06%
- inhibition at 10 µM (RPMI-8226): 42.8%
- inhibition at 10 µM (U251): 22.4%
- inhibition at 10 µM (DU-145): 0%
- inhibition at 10 µM (OVCAR-5): 0.76%
- inhibition at 10 µM (HS 578T): 12.1%
- inhibition at 10 µM (LOX IMVI): 132%
- inhibition at 10 µM (OVCAR-8): 7.52%
- inhibition at 10 µM (OVCAR-4): 0%
- inhibition at 10 µM (SK-MEL-2): 0%
- inhibition at 10 µM (SN12C): 9.61%
- inhibition at 10 µM (IGROV1): 18.4%
- inhibition at 10 µM (UACC-257): 0%
- inhibition at 10 µM (HT29): 0%
- inhibition at 10 µM (CCRF-CEM): 18.4%
- inhibition at 10 µM (SK-OV-3): 0%
- inhibition at 10 µM (SR): 39.6%
- inhibition at 10 µM (SW-620): 0%
- inhibition at 10 µM (HCT-15): 13.1%
- inhibition at 10 µM (NCI-H460): 0%
- inhibition at 10 µM (CAKI-1): 2.81%
- inhibition at 10 µM (SF-295): 2.25%
- inhibition at 10 µM (PC-3): 4.91%
- inhibition at 10 µM (NCI-H226): 8.31%
- inhibition at 10 µM (BT-549): 15.6%
- inhibition at 10 µM (OVCAR-3): 2.13%
- inhibition at 10 µM (UO-31): 16%
- inhibition at 10 µM (786-0): 9.2%
- inhibition at 10 µM (ACHN): 3.22%
- inhibition at 10 µM (MCF7): 40.9%
- inhibition at 10 µM (MDA-MB-468): 6.96%
- inhibition at 10 µM (NCI-H23): 0%
